Biological target: T1, Tyrosine-protein phosphatase non-receptor type 22 (Homo sapiens, UniProt Q9Y2R2)
T1 sequence (Q9Y2R2 whole entry): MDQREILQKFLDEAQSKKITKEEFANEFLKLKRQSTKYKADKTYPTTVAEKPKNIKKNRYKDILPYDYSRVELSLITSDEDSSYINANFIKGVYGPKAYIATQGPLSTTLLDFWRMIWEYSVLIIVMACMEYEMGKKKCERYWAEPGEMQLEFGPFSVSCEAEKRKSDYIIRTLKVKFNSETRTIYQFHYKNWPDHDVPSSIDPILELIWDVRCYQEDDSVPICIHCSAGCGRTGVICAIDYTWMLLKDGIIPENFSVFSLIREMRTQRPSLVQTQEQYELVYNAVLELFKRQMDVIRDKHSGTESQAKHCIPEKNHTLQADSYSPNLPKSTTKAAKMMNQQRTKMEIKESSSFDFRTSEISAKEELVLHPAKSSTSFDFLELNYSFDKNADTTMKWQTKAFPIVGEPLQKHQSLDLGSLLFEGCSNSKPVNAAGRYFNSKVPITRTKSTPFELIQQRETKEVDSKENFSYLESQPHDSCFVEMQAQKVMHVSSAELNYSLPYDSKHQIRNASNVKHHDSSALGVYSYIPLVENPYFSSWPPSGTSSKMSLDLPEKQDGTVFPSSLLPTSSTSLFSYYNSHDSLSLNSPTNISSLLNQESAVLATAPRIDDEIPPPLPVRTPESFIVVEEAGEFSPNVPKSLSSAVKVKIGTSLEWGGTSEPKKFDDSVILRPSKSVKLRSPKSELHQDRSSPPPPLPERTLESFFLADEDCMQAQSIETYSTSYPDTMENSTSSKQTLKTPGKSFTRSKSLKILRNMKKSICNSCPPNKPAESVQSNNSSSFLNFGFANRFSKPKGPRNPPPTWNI
Assay: lymphoid phosphatase LYP inhibitors – biochemical, selectivity assay for STEP inhibitor project, dose response (AID 624241)

Row | IC50 [µM] | SMILES
1 | > 100 | CCOC(=O)N1CCC(N(CCN(C)C)C(=S)Nc2ccc(Oc3ccccc3)cc2)CC1 [SMR000311544]
2 | > 100 | O=C(N/N=C/c1ccc(OC(=O)c2cccs2)cc1)c1cccc(F)c1 [MLS000576933]
3 | > 100 | CCOc1ccc(/C=N/NC(=O)c2cc3c(OC)cccc3[nH]2)cc1 [MLS001216500]
4 | > 100 | Cc1sc2nc(CSC(C)C(=O)Nc3ccc(Cl)cn3)nc(O)c2c1C (stereo not given) [SMR001268769]
5 | > 100 | O=C(Nc1cccc2c(=O)[nH][nH]c(=O)c12)c1ccc([N+](=O)[O-])cc1 [MLS003171605]
6 | 2.82 | CSc1ccc(CN=Nc2ccc(S(=O)(=O)Nc3ccccc3C(=O)O)cc2[N+](=O)[O-])cc1 [MLS002245633]
7 | > 100 | OCCN1CCN(C(=S)c2ccc(Br)cc2)CC1 [MLS000577024]
8 | > 100 | COC(=O)c1ccccc1CSc1nsc(/C=C/N(C)C)c1C#N [SMR000549393]
9 | > 100 | COc1ccc(OC)c(-n2c(O)c3o[nH]c(-c4ccccc4Cl)c-3c2=O)c1 [SMR000046218]
10 | > 100 | CCc1ccc(OCC(=O)Nc2ccc(-c3nc4ccccc4o3)c(O)c2)cc1 [MLS000109444]
11 | > 100 | O=C(NN=Cc1ccccc1O)NN=Cc1ccccc1O [SMR001556943]
12 | > 100 | S=C1N=C2C(=C3SCCS3)CCCC2C(c2ccccc2)N1 (stereo not given) [MLS000516376]
13 | > 100 | CC(C)(C)C(=O)Nc1ccc(C(=O)Nc2cccc(Oc3ccc(C(=O)O)c(C(=O)O)c3)c2)cc1 [MLS001181252]
14 | > 100 | Cc1ccc(NC(=O)c2ccc3nc(N4CCOCC4)sc3c2)c(Cl)c1 [SMR000624920]
15 | > 100 | COC(=O)Nc1sc2c(c1C(N)=O)CCC(C)C2 (stereo not given) [MLS000683996]
16 | > 100 | CCN1CCN(C(=S)c2ccc(Cl)c(Cl)c2)CC1 [SMR000143195]
17 | > 100 | O=C(N/N=C/C1C=CC=CC1=O)c1cccc([N+](=O)[O-])c1 (stereo not given) [MLS002667988]
18 | > 100 | N=C1S/C(=C\c2ccc(O)cc2)C(=O)N1c1ccc(F)cc1 [SMR000298434]
19 | > 100 | O=C(N/N=C/c1ccc(Cl)c([N+](=O)[O-])c1)c1ccc2c(c1)OCCO2 [MLS000587937]

More lines, now with the values behind:

Row | SMILES | IC50 [µM]
20 | S=C(NCCc1ccccc1)Nc1c(Cl)cccc1Cl [1-(2,6-dichlorophenyl)-3-(2-phenylethyl)thiourea] | > 100
21 | COc1cccc(-c2cc(C(=O)Nc3nc4ccccc4s3)c3ccccc3n2)c1 [N-(1,3-benzothiazol-2-yl)-2-(3-methoxyphenyl)-4-quinolinecarboxamide] | > 100
22 | O=[N+]([O-])c1ccc(O)c(Nc2ncnc3ccccc23)c1 [4-nitro-2-(4-quinazolinylamino)phenol] | > 100
23 | CCOc1ccc(C(=S)N2CCN(C)CC2)cc1 [(4-ethoxyphenyl)-(4-methyl-1-piperazinyl)methanethione] | > 100
24 | Cc1ccc(N=C(S)N(CCN(C)C)Cc2cccs2)c(C)c1 | > 100
25 | O=C1Nc2ccc3sc4ccccc4c3c2C1=O [3H-6-Thia-3-aza-cyclopenta[c]fluorene-1,2-dione] | > 100
26 | O=C(N/N=C/c1cccc(Br)c1)c1ccc(N2CCCC2=O)cc1 [N-[(E)-(3-bromophenyl)methylideneamino]-4-(2-oxidanylidenepyrrolidin-1-yl)benzamide] | > 100
27 | O=C(N/N=C/c1cccc([N+](=O)[O-])c1)c1ccc(Br)cc1 [4-bromo-N-[(E)-(3-nitrophenyl)methylideneamino]benzamide] | > 100
28 | COc1cc(Cl)ccc1N=C(S)N(CCCN1CCOCC1)Cc1cn(C)c2ccccc12 [N'-(4-chloro-2-methoxyphenyl)-N-[(1-methyl-1H-indol-3-yl)methyl]-N-(3-morpholin-4-ylpropyl)thiourea] | > 100
29 | O=C(COc1ccc(/C=N/NC(=O)c2ccccc2O)cc1)Nc1ccccc1 [N-[(E)-[4-(2-anilino-2-oxoethoxy)phenyl]methylideneamino]-2-hydroxybenzamide] | > 100
30 | O=S(=O)(Nc1ccc(Cl)cc1)c1ccc(N2CCOCC2)c(NC(=S)NCCN2CCOCC2)c1 | > 100
31 | Cc1ccc(C(=S)N2CCN(Cc3ccccc3)CC2)s1 [(5-methyl-2-thiophenyl)-[4-(phenylmethyl)-1-piperazinyl]methanethione] | > 100
32 | Cc1ccc(-c2nc(NC(=O)CSc3cc(C)c4ccccc4n3)ns2)cc1 [2-[(4-methyl-2-quinolyl)thio]-N-[5-(p-tolyl)-1,2,4-thiadiazol-3-yl]acetamide] | > 100
33 | Cc1c(CCC(=O)O)c(=O)oc2c(C)c(OCc3ccccc3Cl)ccc12 [3-[7-[(2-chlorophenyl)methoxy]-4,8-dimethyl-2-oxochromen-3-yl]propanoic acid] | > 100
34 | OCCN1CCN(C(=S)c2ccc(Cl)c(Cl)c2)CC1 [(3,4-dichlorophenyl)-[4-(2-hydroxyethyl)-1-piperazinyl]methanethione] | > 100
35 | COc1ccc(CN=Nc2nc(O)c(CC(=O)O)s2)cc1OCc1ccc(Cl)cc1Cl [[2-({3-[(2,4-dichlorobenzyl)oxy]-4-methoxybenzylidene}hydrazono)-4-oxo-1,3-thiazolidin-5-yl]acetic acid] | 33.8
36 | O=C(CCc1ccccc1)NNC(=O)c1ccc(NC(=O)c2ccccc2)cc1 | > 100
37 | NC(=O)C1(N2CCCCC2)CCN(C(=S)Nc2ccc(S(N)(=O)=O)cc2)CC1 [1'-({[4-(aminosulfonyl)phenyl]amino}carbonothioyl)-1,4'-bipiperidine-4'-carboxamide] | > 100
38 | CCOc1cc(CN=Nc2nc(O)c(CC(=O)O)s2)ccc1OCc1ccc(Cl)cc1Cl [2-[2-[(N''E)-N''-[4-(2,4-dichlorobenzyl)oxy-3-ethoxy-benzylidene]hydrazino]-4-keto-2-thiazolin-5-yl]acetic acid] | 7.26
39 | O=C(N/N=C/c1ccc(Br)cc1)c1ccc(Br)o1 [5-bromanyl-N-[(E)-(4-bromophenyl)methylideneamino]furan-2-carboxamide] | > 100
40 | COc1cccc(Nc2nn3c(=O)c4ccccc4nc3s2)c1 | > 100
41 | S=C(c1cn(CCOc2ccccc2)c2ccccc12)N1CCCC1 [MLS-0109562.0001] | > 100
42 | Cc1c(CC(=O)O)c(=O)oc2c(C)c(OCc3ccccc3Br)ccc12 [2-[7-[(2-bromophenyl)methoxy]-4,8-dimethyl-2-oxochromen-3-yl]acetic acid] | > 100
43 | CCCN(CC(=O)Nc1ccccc1OC)C(=O)Cc1ccc2c(c1)CCC2 [2-(2,3-dihydro-1H-inden-5-yl)-N-[2-[(2-methoxyphenyl)amino]-2-oxidanylidene-ethyl]-N-propyl-ethanamide] | > 100
44 | COc1ccc(NC(=S)NCCCN2CCCC2)cc1Cl [1-(3-chloro-4-methoxyphenyl)-3-[3-(1-pyrrolidinyl)propyl]thiourea] | > 100
45 | O=C(N/N=C/c1ccncc1)c1cccc(S(=O)(=O)Nc2ccc(Cl)cc2)c1 | > 100
